The source of these data is publication PMC4676015, “Variant fatty acid-like molecules Conjugation, novel approaches for extending the stability of therapeutic peptides” (Scientific Reports, 2015).

A word on the Kd: it is the equilibrium constant for the complex coming apart. Low values mean higher affinity, high ones lower affinity.

The target of this test is T1, GLP-1 receptor (GLP-1R) (Rattus norvegicus, UniProt P32301).
T1 construct: endogenous in cells; host or cells: rat INS-1 cells
T1 sequence (P32301 22-463): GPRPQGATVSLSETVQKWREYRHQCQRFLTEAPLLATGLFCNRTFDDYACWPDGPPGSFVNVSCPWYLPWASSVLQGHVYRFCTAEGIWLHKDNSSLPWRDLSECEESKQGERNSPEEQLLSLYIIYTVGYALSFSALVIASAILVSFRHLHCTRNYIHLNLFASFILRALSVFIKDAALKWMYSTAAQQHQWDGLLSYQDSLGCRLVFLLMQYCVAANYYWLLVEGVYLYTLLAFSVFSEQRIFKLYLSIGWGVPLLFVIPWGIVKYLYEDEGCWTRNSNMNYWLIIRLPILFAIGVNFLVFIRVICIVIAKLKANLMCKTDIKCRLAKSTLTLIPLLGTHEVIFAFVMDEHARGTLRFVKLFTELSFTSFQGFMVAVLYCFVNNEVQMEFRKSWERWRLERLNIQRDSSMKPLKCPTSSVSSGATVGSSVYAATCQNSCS
Nature of the test: GLP-1 receptor binding assay (cellular ELISA). As for the experimental part: Cells were rinsed with PBS and fixed with 4% paraformaldehyde (Thermo Scientific) for 10 min at room temperature and quenched for 5 min with 2% glycine in PBS, pH 7.5. […] After a 2 h incubation at 37 °C in a final volume of 100 μl, the excess peptides were washed, and the cells were blocked with 5% BSA (BD Biosciences). […] Colorimetric changes were analyzed by reading the absorbance at 450 nm in a SpectraMax M5 (Molecular Device) microplate reader. The peptide concentration was plotted against UV absorbance, and the Kd was calculated using Origin 7.0 software.
`CCCCCCCC(=O)NCCCC[C@H](NC(=O)[C@H](C)NC(=O)[C@H](C)NC(=O)[C@H](CCC(N)=O)NC(=O)CNC(=O)[C@H](CCC(=O)O)NC(=O)[C@H](CC(C)C)NC(=O)[C@H](Cc1ccc(O)cc1)NC(=O)[C@H](CO)NC(=O)[C@H](CO)NC(=O)[C@@H](NC(=O)[C@H](CC(=O)O)NC(=O)[C@H](CO)NC(=O)[C@@H](NC(=O)[C@H](Cc1ccccc1)NC(=O)[C@@H](NC(=O)CNC(=O)[C@H](CCC(=O)O)NC(=O)[C@H](C)NC(=O)[C@@H](N)Cc1c[nH]cn1)[C@@H](C)O)[C@@H](C)O)C(C)C)C(=O)N[C@@H](CCC(=O)O)C(=O)N[C@@H](Cc1ccccc1)C(=O)N[C@H](C(=O)N[C@@H](C)C(=O)N[C@@H](Cc1c[nH]c2ccccc12)C(=O)N[C@@H](CC(C)C)C(=O)N[C@H](C(=O)N[C@@H](CCCCN)C(=O)NCC(=O)N[C@@H](CCCNC(=N)N)C(=O)NCC(=O)O)C(C)C)[C@@H](C)CC` [compound 1] yielded a Kd of 36.2 ± 0.95 nM.

As to `CCCCCCCCCCCC(=O)NCCCC[C@H](NC(=O)[C@H](C)NC(=O)[C@H](C)NC(=O)[C@H](CCC(N)=O)NC(=O)CNC(=O)[C@H](CCC(=O)O)NC(=O)[C@H](CC(C)C)NC(=O)[C@H](Cc1ccc(O)cc1)NC(=O)[C@H](CO)NC(=O)[C@H](CO)NC(=O)[C@@H](NC(=O)[C@H](CC(=O)O)NC(=O)[C@H](CO)NC(=O)[C@@H](NC(=O)[C@H](Cc1ccccc1)NC(=O)[C@@H](NC(=O)CNC(=O)[C@H](CCC(=O)O)NC(=O)[C@H](C)NC(=O)[C@@H](N)Cc1c[nH]cn1)[C@@H](C)O)[C@@H](C)O)C(C)C)C(=O)N[C@@H](CCC(=O)O)C(=O)N[C@@H](Cc1ccccc1)C(=O)N[C@H](C(=O)N[C@@H](C)C(=O)N[C@@H](Cc1c[nH]c2ccccc12)C(=O)N[C@@H](CC(C)C)C(=O)N[C@H](C(=O)N[C@@H](CCCCN)C(=O)NCC(=O)N[C@@H](CCCNC(=N)N)C(=O)NCC(=O)O)C(C)C)[C@@H](C)CC` [compound 2], the affinity, expressed as Kd, was 39.9 ± 1.27 nM.

On to `CCCCCCCCCCCCCCCC(=O)NCCCC[C@H](NC(=O)[C@H](C)NC(=O)[C@H](C)NC(=O)[C@H](CCC(N)=O)NC(=O)CNC(=O)[C@H](CCC(=O)O)NC(=O)[C@H](CC(C)C)NC(=O)[C@H](Cc1ccc(O)cc1)NC(=O)[C@H](CO)NC(=O)[C@H](CO)NC(=O)[C@@H](NC(=O)[C@H](CC(=O)O)NC(=O)[C@H](CO)NC(=O)[C@@H](NC(=O)[C@H](Cc1ccccc1)NC(=O)[C@@H](NC(=O)CNC(=O)[C@H](CCC(=O)O)NC(=O)[C@H](C)NC(=O)[C@@H](N)Cc1c[nH]cn1)[C@@H](C)O)[C@@H](C)O)C(C)C)C(=O)N[C@@H](CCC(=O)O)C(=O)N[C@@H](Cc1ccccc1)C(=O)N[C@H](C(=O)N[C@@H](C)C(=O)N[C@@H](Cc1c[nH]c2ccccc12)C(=O)N[C@@H](CC(C)C)C(=O)N[C@H](C(=O)N[C@@H](CCCCN)C(=O)NCC(=O)N[C@@H](CCCNC(=N)N)C(=O)NCC(=O)O)C(C)C)[C@@H](C)CC` [compound 3], for which binding was characterised by a dissociation constant (Kd) of 33.8 ± 1.21 nM.

Regarding `CCCCCCCC(=O)NCCCC[C@H](NC(=O)[C@@H](NC(=O)[C@H](CC(C)C)NC(=O)[C@H](Cc1c[nH]c2ccccc12)NC(=O)[C@H](C)NC(=O)[C@@H](NC(=O)[C@H](Cc1ccccc1)NC(=O)[C@H](CCC(=O)O)NC(=O)[C@H](CCCCN)NC(=O)[C@H](C)NC(=O)[C@H](C)NC(=O)[C@H](CCC(N)=O)NC(=O)CNC(=O)[C@H](CCC(=O)O)NC(=O)[C@H](CC(C)C)NC(=O)[C@H](Cc1ccc(O)cc1)NC(=O)[C@H](CO)NC(=O)[C@H](CO)NC(=O)[C@@H](NC(=O)[C@H](CC(=O)O)NC(=O)[C@H](CO)NC(=O)[C@@H](NC(=O)[C@H](Cc1ccccc1)NC(=O)[C@@H](NC(=O)CNC(=O)[C@H](CCC(=O)O)NC(=O)[C@H](C)NC(=O)[C@@H](N)Cc1c[nH]cn1)[C@@H](C)O)[C@@H](C)O)C(C)C)[C@@H](C)CC)C(C)C)C(=O)NCC(=O)N[C@@H](CCCNC(=N)N)C(=O)NCC(=O)O` [compound 4], the Kd is 15.4 ± 0.67 nM.

As for `CCCCCCCCCCCC(=O)NCCCC[C@H](NC(=O)[C@@H](NC(=O)[C@H](CC(C)C)NC(=O)[C@H](Cc1c[nH]c2ccccc12)NC(=O)[C@H](C)NC(=O)[C@@H](NC(=O)[C@H](Cc1ccccc1)NC(=O)[C@H](CCC(=O)O)NC(=O)[C@H](CCCCN)NC(=O)[C@H](C)NC(=O)[C@H](C)NC(=O)[C@H](CCC(N)=O)NC(=O)CNC(=O)[C@H](CCC(=O)O)NC(=O)[C@H](CC(C)C)NC(=O)[C@H](Cc1ccc(O)cc1)NC(=O)[C@H](CO)NC(=O)[C@H](CO)NC(=O)[C@@H](NC(=O)[C@H](CC(=O)O)NC(=O)[C@H](CO)NC(=O)[C@@H](NC(=O)[C@H](Cc1ccccc1)NC(=O)[C@@H](NC(=O)CNC(=O)[C@H](CCC(=O)O)NC(=O)[C@H](C)NC(=O)[C@@H](N)Cc1c[nH]cn1)[C@@H](C)O)[C@@H](C)O)C(C)C)[C@@H](C)CC)C(C)C)C(=O)NCC(=O)N[C@@H](CCCNC(=N)N)C(=O)NCC(=O)O` [compound 5], binding was characterised by a dissociation constant (Kd) of 14.3 ± 1.1 nM.

As to `CCCCCCCCNC(=O)CC[C@H](NC(=O)[C@H](C)NC(=O)[C@@H](N)Cc1c[nH]cn1)C(=O)NCC(=O)N[C@H](C(=O)N[C@@H](Cc1ccccc1)C(=O)N[C@H](C(=O)N[C@@H](CO)C(=O)N[C@@H](CC(=O)O)C(=O)N[C@H](C(=O)N[C@@H](CO)C(=O)N[C@@H](CO)C(=O)N[C@@H](Cc1ccc(O)cc1)C(=O)N[C@@H](CC(C)C)C(=O)N[C@@H](CCC(=O)O)C(=O)NCC(=O)N[C@@H](CCC(N)=O)C(=O)N[C@@H](C)C(=O)N[C@@H](C)C(=O)N[C@@H](CCCCN)C(=O)N[C@@H](CCC(=O)O)C(=O)N[C@@H](Cc1ccccc1)C(=O)N[C@H](C(=O)N[C@@H](C)C(=O)N[C@@H](Cc1c[nH]c2ccccc12)C(=O)N[C@@H](CC(C)C)C(=O)N[C@H](C(=O)N[C@@H](CCCCN)C(=O)NCC(=O)N[C@@H](CCCNC(=N)N)C(=O)NCC(=O)O)C(C)C)[C@@H](C)CC)C(C)C)[C@@H](C)O)[C@@H](C)O` [compound 7], the Kd stood at 104 ± 3.42 nM.

For the molecule `CCCCCCCCCCCCNC(=O)CC[C@H](NC(=O)[C@H](C)NC(=O)[C@@H](N)Cc1c[nH]cn1)C(=O)NCC(=O)N[C@H](C(=O)N[C@@H](Cc1ccccc1)C(=O)N[C@H](C(=O)N[C@@H](CO)C(=O)N[C@@H](CC(=O)O)C(=O)N[C@H](C(=O)N[C@@H](CO)C(=O)N[C@@H](CO)C(=O)N[C@@H](Cc1ccc(O)cc1)C(=O)N[C@@H](CC(C)C)C(=O)N[C@@H](CCC(=O)O)C(=O)NCC(=O)N[C@@H](CCC(N)=O)C(=O)N[C@@H](C)C(=O)N[C@@H](C)C(=O)N[C@@H](CCCCN)C(=O)N[C@@H](CCC(=O)O)C(=O)N[C@@H](Cc1ccccc1)C(=O)N[C@H](C(=O)N[C@@H](C)C(=O)N[C@@H](Cc1c[nH]c2ccccc12)C(=O)N[C@@H](CC(C)C)C(=O)N[C@H](C(=O)N[C@@H](CCCCN)C(=O)NCC(=O)N[C@@H](CCCNC(=N)N)C(=O)NCC(=O)O)C(C)C)[C@@H](C)CC)C(C)C)[C@@H](C)O)[C@@H](C)O` [compound 8], binding was characterised by a dissociation constant (Kd) of 96.7 ± 2.95 nM.

`CCCCCCCCCCCCCCCCNC(=O)CC[C@H](NC(=O)[C@H](C)NC(=O)[C@@H](N)Cc1c[nH]cn1)C(=O)NCC(=O)N[C@H](C(=O)N[C@@H](Cc1ccccc1)C(=O)N[C@H](C(=O)N[C@@H](CO)C(=O)N[C@@H](CC(=O)O)C(=O)N[C@H](C(=O)N[C@@H](CO)C(=O)N[C@@H](CO)C(=O)N[C@@H](Cc1ccc(O)cc1)C(=O)N[C@@H](CC(C)C)C(=O)N[C@@H](CCC(=O)O)C(=O)NCC(=O)N[C@@H](CCC(N)=O)C(=O)N[C@@H](C)C(=O)N[C@@H](C)C(=O)N[C@@H](CCCCN)C(=O)N[C@@H](CCC(=O)O)C(=O)N[C@@H](Cc1ccccc1)C(=O)N[C@H](C(=O)N[C@@H](C)C(=O)N[C@@H](Cc1c[nH]c2ccccc12)C(=O)N[C@@H](CC(C)C)C(=O)N[C@H](C(=O)N[C@@H](CCCCN)C(=O)NCC(=O)N[C@@H](CCCNC(=N)N)C(=O)NCC(=O)O)C(C)C)[C@@H](C)CC)C(C)C)[C@@H](C)O)[C@@H](C)O` [compound 9] had a Kd of 99.74 ± 0.92 nM.

On to `CCCCCCCCNC(=O)C[C@H](NC(=O)[C@H](CO)NC(=O)[C@@H](NC(=O)[C@H](Cc1ccccc1)NC(=O)[C@@H](NC(=O)CNC(=O)[C@H](CCC(=O)O)NC(=O)[C@H](C)NC(=O)[C@@H](N)Cc1c[nH]cn1)[C@@H](C)O)[C@@H](C)O)C(=O)N[C@H](C(=O)N[C@@H](CO)C(=O)N[C@@H](CO)C(=O)N[C@@H](Cc1ccc(O)cc1)C(=O)N[C@@H](CC(C)C)C(=O)N[C@@H](CCC(=O)O)C(=O)NCC(=O)N[C@@H](CCC(N)=O)C(=O)N[C@@H](C)C(=O)N[C@@H](C)C(=O)N[C@@H](CCCCN)C(=O)N[C@@H](CCC(=O)O)C(=O)N[C@@H](Cc1ccccc1)C(=O)N[C@H](C(=O)N[C@@H](C)C(=O)N[C@@H](Cc1c[nH]c2ccccc12)C(=O)N[C@@H](CC(C)C)C(=O)N[C@H](C(=O)N[C@@H](CCCCN)C(=O)NCC(=O)N[C@@H](CCCNC(=N)N)C(=O)NCC(=O)O)C(C)C)[C@@H](C)CC)C(C)C` [compound 10], for which binding was put at a Kd of 88.3 ± 3.27 nM.
